Literature values as cited in US10950327B2, “Methods and tools for detecting, diagnosing, predicting, prognosticating, or treating a neurobehavioral phenotype in a subject” (BlackThorn Therapeutics, Inc., priority 2017, dated 2021).

Key:
[1] = in vivo
5HT6 receptors = 5HT6 receptors (Homo sapiens, UniProt P50406)
[2] = target: muscarinic M3 (CHRM3) receptor (Homo sapiens, UniProt P20309)
[3] = tested on: mean functional connectivity (Global Brain Connectivity, GBC); conditions: healthy human subjects
[4] = tested on: patients with schizophrenia

Sequence of muscarinic M3 (CHRM3) receptor (P20309 whole entry): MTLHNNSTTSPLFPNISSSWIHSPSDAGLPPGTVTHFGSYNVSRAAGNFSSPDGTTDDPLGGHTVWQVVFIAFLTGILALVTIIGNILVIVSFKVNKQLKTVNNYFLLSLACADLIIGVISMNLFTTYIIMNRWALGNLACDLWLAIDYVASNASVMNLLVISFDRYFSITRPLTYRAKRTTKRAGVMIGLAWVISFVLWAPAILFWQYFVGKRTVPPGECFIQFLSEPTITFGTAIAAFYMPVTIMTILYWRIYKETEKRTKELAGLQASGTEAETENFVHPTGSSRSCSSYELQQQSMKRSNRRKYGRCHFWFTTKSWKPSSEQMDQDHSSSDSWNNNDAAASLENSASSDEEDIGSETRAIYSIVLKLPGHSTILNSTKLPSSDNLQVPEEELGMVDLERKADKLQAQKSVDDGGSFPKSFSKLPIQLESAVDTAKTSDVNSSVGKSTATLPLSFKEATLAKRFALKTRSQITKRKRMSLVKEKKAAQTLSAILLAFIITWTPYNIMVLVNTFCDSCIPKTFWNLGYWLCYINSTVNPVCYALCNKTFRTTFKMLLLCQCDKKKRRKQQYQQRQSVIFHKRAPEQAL
Sequence of 5HT6 receptors (P50406 whole entry): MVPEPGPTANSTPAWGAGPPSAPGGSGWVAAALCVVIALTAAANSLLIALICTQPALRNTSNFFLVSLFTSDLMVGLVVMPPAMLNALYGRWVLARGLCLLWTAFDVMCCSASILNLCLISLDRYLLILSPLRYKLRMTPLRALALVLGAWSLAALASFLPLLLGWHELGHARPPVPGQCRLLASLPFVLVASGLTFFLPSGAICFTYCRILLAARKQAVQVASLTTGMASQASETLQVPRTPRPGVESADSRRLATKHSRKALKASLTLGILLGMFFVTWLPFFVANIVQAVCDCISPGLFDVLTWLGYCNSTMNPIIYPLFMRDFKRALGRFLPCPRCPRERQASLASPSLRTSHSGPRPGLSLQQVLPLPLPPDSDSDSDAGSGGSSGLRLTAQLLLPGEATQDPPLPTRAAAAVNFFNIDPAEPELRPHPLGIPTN

## O=C1Nc2ccc(Cl)cc2[C@@](C#CC2CC2)(C(F)(F)F)O1 [efavirenz]
HIV-1
  suppression of HIV-1: effective in suppressing HIV-1
[1]
  risk of neuropsychiatric symptoms: increase the risk of neuropsychiatric symptoms
5HT6 receptors
  activity at 5HT6 receptors: inverse agonist activity
[2]
  activity at muscarinic M3 (CHRM3) receptor: antagonist activity

## CCN(CC)C(=O)[C@@H]1C=C2c3cccc4[nH]cc(c34)C[C@H]2N(C)C1 [LSD, lysergic acid diethylamide]
[3]; acute administration, fMRI-derived cortical map
  change in mean functional connectivity (Global Brain Connectivity, GBC): large increase in occipital visual cortex

## O=C(c1ccc(F)cc1)C1CCN(CCn2c(=O)[nH]c3ccccc3c2=O)CC1 [ketanserin]
[3]; pre-administration before LSD
  effect on LSD-induced neural change and behavioral effects: blocked

## Cc1nc2cccc(C(F)(F)F)c2c(=O)n1-c1ccc(OCCCN2CCCC2)cc1 [MK-0249]
[4]
  improvement of cognitive deficits: failed to improve cognitive deficits
